Source: patent publication US10344019B2 (priority 2010, dated 2019)
Like-named read-outs stand apart in the source and are kept apart here.

Columns and labels:
Type in all cases: cell-based
[1] = system: HCV 2a Rluc cells (NS5A chimeric genotype 2a JFH-1 replicon with genotype 2a J6 strain NS5A gene, M31 present); assay: HCV replicon reporter assay, genotype 2a J6 (M31 present); conditions: Hepatitis C virus, read-out: 2a J6
How it was run: (§1)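 Replicon cells stably carrying the listed RLuc-encoding dicistronic replicons were seeded and treated with DMSO serial dilutions of compound (10 mM stocks) diluted into culture medium. After 72 h, cells were lysed and Renilla luciferase activity measured. EC50 was derived by non-linear regression.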

[2] = system: HCV 3a RLuc cells (NS5A chimeric genotype 1b Con1 replicon with consensus genotype 3a NS5A gene); assay: microbe, parasite or virus in culture
How it was run: as §1

[3] = system: HCV 1b RLuc cells (dicistronic genotype 1b Con1 replicon, RLuc reporter); assay: microbe, parasite or virus in culture
How it was run: as §1

[4] = system: HCV 1a RLuc cells (dicistronic genotype 1a H77 replicon, RLuc reporter); assay: microbe, parasite or virus in culture; conditions: read-out: 1a
How it was run: as §1

[5] = system: HCV 4a Rluc cells (NS5A chimeric genotype 1b Con1 replicon with genotype 4a NS5A gene); assay: microbe, parasite or virus in culture; conditions: Hepatitis C virus, read-out: 4a
How it was run: as §1

[6] = system: HCV 2a JFH-1 Rluc cells (dicistronic genotype 2a JFH-1 replicon, RLuc reporter); assay: microbe, parasite or virus in culture; conditions: read-out: 2a JFH
How it was run: as §1

[7] = system: HCV 2b Rluc cells (NS5A chimeric genotype 2a JFH-1 replicon with genotype 2b MD2b-1 NS5A gene, M31 present); assay: microbe, parasite or virus in culture; conditions: Hepatitis C virus, read-out: 2b
How it was run: as §1

[8] = Hepatitis C virus, read-out: 3a, genotype 3a NS5A chimeric replicon
[9] = Hepatitis C virus, read-out: 1b (nM)
[10] = Hepatitis C virus, genotype 1a H77 RLuc replicon
[11] = Hepatitis C virus, genotype 2a JFH-1 RLuc replicon
[12] = Hepatitis C virus, read-out: 3a, genotype 3a replicon
[13] = Hepatitis C virus, genotype 1a replicon
[14] = Hepatitis C virus, genotype 2a JFH-1 replicon

SMILES | EC50 [1] [nM] | EC50 ([2]; Hepatitis C virus, read-out: 3a, Table 2, genotype 3a NS5A chimeric replicon) [nM] | EC50 ([3]; Hepatitis C virus, 72 h, read-out: 1b (nM)) [nM] | EC50 ([4]; Hepatitis C virus, 72 h, Table 2, genotype 1a H77 replicon, 72 hours) [nM] | EC50 [5] [nM] | EC50 ([6]; Hepatitis C virus, 72 h, Table 2, genotype 2a JFH-1 replicon, 72 hours) [nM] | EC50 [7] [nM] | EC50 [2, 8] [nM] | EC50 [3, 9] [nM] | EC50 [4, 10] [nM] | EC50 [6, 11] [nM] | EC50 [2, 12] [nM] | EC50 [4, 13] [nM] | EC50 [6, 14] [nM] | EC50 ([2]; read-out: 3a, Table 2, genotype 3a NS5A chimeric replicon) [nM] | EC50 ([3]; read-out: 1b) [nM] | EC50 ([4]; Table 2, genotype 1a H77 replicon, 72 hours) [nM] | EC50 ([6]; Table 2, genotype 2a JFH-1 replicon, 72 hours) [nM]
COC(=O)N[C@H](C(=O)N1CCC[C@H]1c1nc2ccc3cc(-c4ccc5c(ccc6nc([C@@H]7[C@H]8CC[C@H](C8)N7C(=O)[C@@H](NC(=O)OC)C7CCOCC7)[nH]c65)c4)ccc3c2[nH]1)C(C)C [Example 95] | 0.001 to 0.999 | 0.001 to 0.99 | 0.028 | 0.001 to 0.999 | 0.001 to 0.99 | 0.001 to 0.999 | 1 to 44 | – | – | – | – | – | – | – | – | – | – | –
COC[C@H]1C[C@@H](c2ncc(-c3cc4c5c(c3)OCc3cc(-c6cnc([C@@H]7CC[C@H](C)N7C(=O)[C@@H](NC(=O)OC)C(C)C)[nH]6)cc(c3-5)OC4)[nH]2)N(C(=O)[C@@H](NC(=O)OC)C(C)C)C1 [Example 595] | > 44 | – | – | – | 0.001 to 0.99 | – | 1 to 44 | 0.001 to 0.99 | 0.02 | 0.001 to 0.999 | 0.001 to 0.999 | – | – | – | – | – | – | –
COC(=O)N[C@H](C(=O)N1CC2(C[C@H]1c1nc3ccc4cc(-c5ccc(-c6cnc([C@@H]7CCCN7C(=O)[C@H](NC(=O)OC)c7ccccc7)[nH]6)cc5)ccc4c3[nH]1)OCCO2)C(C)C [Example 411] | 1 to 44 | – | – | – | 0.001 to 0.99 | – | 1 to 44 | – | 0.034 | – | – | 0.001 to 0.99 | 0.001 to 0.999 | 0.001 to 0.999 | – | – | – | –
CC(=O)N[C@@H](C(=O)N1CCC[C@H]1c1ncc(-c2cc3c4c(c2)OCc2cc(-c5cnc([C@@H]6CCCN6C(=O)[C@H](NC(C)=O)c6ccccc6)[nH]5)cc(c2-4)OC3)[nH]1)c1ccccc1 [Example 419] | 0.001 to 0.999 | – | – | – | 0.001 to 0.99 | – | 0.001 to 0.999 | – | 0.786 | – | – | 0.001 to 0.99 | 1 to 44 | 0.001 to 0.999 | – | – | – | –
CC#Cc1cc(-c2cnc([C@@H]3CCCN3C(=O)[C@@H](NC(=O)OC)C(C)C)[nH]2)ccc1-c1ccc2c(ccc3nc([C@@H]4C[C@H](COC)CN4C(=O)[C@H](NC(=O)OC)c4ccccc4)[nH]c32)c1 [Example 549] | 0.001 to 0.999 | – | – | – | 0.001 to 0.99 | – | 0.001 to 0.999 | 0.001 to 0.99 | 0.007 | 0.001 to 0.999 | 0.001 to 0.999 | – | – | – | – | – | – | –
COC[C@H]1C[C@@H](c2nc3ccc4cc(-c5ccc6c(ccc7nc([C@@H]8[C@@H]9CC[C@@H](C9)N8C(=O)[C@H](NC(=O)OC)c8ccccc8)[nH]c76)c5)ccc4c3[nH]2)N(C(=O)[C@@H](NC(=O)OC)C(C)C)C1 [Example 452] | 0.001 to 0.999 | – | – | – | 0.001 to 0.99 | – | 1 to 44 | – | 0.047 | – | – | 0.001 to 0.99 | 0.001 to 0.999 | 0.001 to 0.999 | – | – | – | –
COC(=O)N[C@H](C(=O)N1[C@@H]2CC[C@@H](C2)[C@H]1c1nc2ccc3cc(-c4ccc5c(ccc6nc([C@@H]7CCCN7C(=O)[C@H](NC(=O)OC)c7ccccc7)[nH]c65)c4)ccc3c2[nH]1)C(C)C [Example 314] | 0.001 to 0.999 | – | – | – | 0.001 to 0.99 | – | 0.001 to 0.999 | – | 0.026 | – | – | 0.001 to 0.99 | 0.001 to 0.999 | 0.001 to 0.999 | – | – | – | –
CCCC(=O)N[C@@H](C(=O)N1CCC[C@H]1c1ncc(-c2cc3c4c(c2)OCc2cc(-c5cnc([C@@H]6CCCN6C(=O)[C@H](NC(=O)CCC)c6ccccc6)[nH]5)cc(c2-4)OC3)[nH]1)c1ccccc1 [Example 470] | 0.001 to 0.999 | – | – | – | 0.001 to 0.99 | – | 0.001 to 0.999 | – | 0.148 | – | – | 0.001 to 0.99 | 0.001 to 0.999 | 0.001 to 0.999 | – | – | – | –
COC[C@H]1C[C@@H](c2nc3ccc4cc(-c5ccc(-c6cnc([C@@H]7CCCN7C(=O)[C@H](NC(=O)CN(C)C)c7ccccc7)[nH]6)cc5)ccc4c3[nH]2)N(C(=O)[C@@H](NC(=O)OC)C(C)C)C1 [Example 476] | 0.001 to 0.999 | – | – | – | 0.001 to 0.99 | – | 0.001 to 0.999 | – | 0.099 | – | – | 0.001 to 0.99 | 0.001 to 0.999 | 0.001 to 0.999 | – | – | – | –
COC(=O)N[C@H](C(=O)N1CCC[C@H]1c1ncc(-c2ccc3cc(-c4ccc(-c5cnc([C@@H]6CCCN6C(=O)[C@H](NC(=O)OC)c6ccccc6)[nH]5)cc4)ccc3c2)[nH]1)C(C)C [Example 26] | 1 to 44 | – | – | – | 0.001 to 0.99 | – | 1 to 44 | – | – | – | – | – | – | – | 0.001 to 0.99 | 0.012 | 0.001 to 0.999 | 0.001 to 0.999
COC[C@H]1CC[C@@H](c2ncc(-c3cc4c5c(c3)OCc3cc(-c6cnc([C@@H]7CC[C@H](COC)N7C(=O)[C@@H](NC(=O)OC)C(C)C)[nH]6)cc(c3-5)OC4)[nH]2)N1C(=O)[C@@H](NC(=O)OC)C(C)C [Example 578] | > 44 | – | – | – | 0.001 to 0.99 | – | > 44 | 0.001 to 0.99 | 0.022 | 0.001 to 0.999 | 0.001 to 0.999 | – | – | – | – | – | – | –
COC[C@H]1C[C@@H](c2nc3ccc4cc(-c5ccc6c(ccc7nc([C@@H]8C[C@H](C)CN8C(=O)[C@@H](NC(=O)OC)C(C)C)[nH]c76)c5)ccc4c3[nH]2)N(C(=O)[C@H](NC(=O)OC)c2ccccc2)C1 [Example 553] | 0.001 to 0.999 | – | – | – | 0.001 to 0.99 | – | 0.001 to 0.999 | 0.001 to 0.99 | 0.014 | 0.001 to 0.999 | 0.001 to 0.999 | – | – | – | – | – | – | –
COC(=O)N[C@H](C(=O)N1CCC[C@H]1c1nc2ccc3cc(-c4ccc5cc(-c6[nH]c([C@@H]7CCCN7C(=O)[C@H](NC(=O)OC)c7ccccc7)nc6Cl)ccc5c4)ccc3c2[nH]1)C(C)C [Example 385] | 1 to 44 | – | – | – | 0.001 to 0.99 | – | 1 to 44 | – | 0.007 | – | – | 0.001 to 0.99 | 0.001 to 0.999 | 0.001 to 0.999 | – | – | – | –
CCC(=O)N[C@@H](C(=O)N1CCC[C@H]1c1ncc(-c2ccc3c(c2)COc2cc4c(ccc5nc([C@@H]6CCCN6C(=O)[C@@H](NC(=O)OC)C(C)C)[nH]c54)cc2-3)[nH]1)c1ccccc1 [Example 499] | 0.001 to 0.999 | – | – | – | 0.001 to 0.99 | – | 0.001 to 0.999 | 0.001 to 0.99 | 0.032 | 0.001 to 0.999 | 0.001 to 0.999 | – | – | – | – | – | – | –
CCS[C@H]1C[C@@H](c2nc3ccc4cc(-c5ccc6c(ccc7nc([C@@H]8C[C@H](COC)CN8C(=O)[C@H](NC(=O)OC)c8ccccc8)[nH]c76)c5)ccc4c3[nH]2)N(C(=O)[C@@H](NC(=O)OC)C(C)C)C1 [Example 583] | 0.001 to 0.999 | – | – | – | 0.001 to 0.99 | – | 0.001 to 0.999 | 0.001 to 0.99 | 0.018 | 0.001 to 0.999 | 0.001 to 0.999 | – | – | – | – | – | – | –
COC(=O)N[C@H](C(=O)N1CCC[C@H]1c1nc(Br)c(-c2cc3c4c(c2)OCc2cc(-c5[nH]c([C@@H]6CCCN6C(=O)[C@@H](NC(=O)OC)C(C)C)nc5Br)cc(c2-4)OC3)[nH]1)C(C)C [Example 473] | 1 to 44 | – | – | – | 0.001 to 0.99 | – | 1 to 44 | – | 0.015 | – | – | 0.001 to 0.99 | 0.001 to 0.999 | 0.001 to 0.999 | – | – | – | –
COC(=O)N[C@H](C(=O)N[C@@H](C(=O)N1CCC[C@H]1c1ncc(-c2cc3c4c(c2)OCc2cc(-c5cnc([C@@H]6CCCN6C(=O)[C@H](NC(=O)[C@@H](NC(=O)OC)C(C)C)c6ccccc6)[nH]5)cc(c2-4)OC3)[nH]1)c1ccccc1)C(C)C [Example 483] | > 44 | – | – | – | 0.001 to 0.99 | – | 0.001 to 0.999 | – | 0.814 | – | – | 0.001 to 0.99 | 1 to 44 | 0.001 to 0.999 | – | – | – | –
COC(=O)N[C@H](C(=O)N1CCC[C@H]1c1nc2ccc3cc(-c4ccc5c(ccc6nc([C@@H]7C[C@H](C#N)CN7C(=O)[C@@H](NC(=O)OC)C(C)C)[nH]c65)c4)ccc3c2[nH]1)C(C)C [Example 416] | 0.001 to 0.999 | – | – | – | 0.001 to 0.99 | – | 1 to 44 | – | 0.043 | – | – | 0.001 to 0.99 | 0.001 to 0.999 | 0.001 to 0.999 | – | – | – | –
